Patent US20260250318A1, “COMPOSITIONS AND METHODS FOR CROSSING THE BLOOD BRAIN BARRIER” (VOYAGER THERAPEUTICS, INC., priority 2022, published 2026)

Tests used:
[1] = system: brain; assay: Matured TTM-001 and TTM-002 variants, NGS enrichment in mouse brain; assay type: in vivo, mice; details: relative to AAV9 control
[2] = system: brains, heart, liver, muscle, and DRG of the NHPs; assay: Maturation of TTM-001 and TTM-002 capsids, NGS enrichment in NHP tissues; assay type: in vivo; details: relative to AAV9 control
Method in brief: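 Variants carry mutations within and flanking the loop IV peptide insert: positions 450–466 were triplet-randomized, while positions 449–466 received low-frequency point mutations. The combined pool went into two NHPs, and each peptide was scored by NGS enrichment ratio against AAV9.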

[3] = NGS fold-enrichment, brain of mice
[4] = NGS fold-enrichment, DRG of NHPs
[5] = NGS fold-enrichment, RNA, brain of NHPs
[6] = NGS fold-enrichment, heart of NHPs
[7] = NGS fold-enrichment, liver DNA of NHPs
[8] = NGS fold-enrichment, liver RNA of NHPs
[9] = NGS fold-enrichment, muscle of NHPs
[10] = NGS fold-enrichment, mouse brain
[11] = NGS fold-enrichment of RNA, NHP brain
[12] = NGS fold-enrichment, NHP liver DNA
[13] = NGS fold-enrichment, NHP liver RNA
[14] = NGS fold-enrichment, NHP muscle
[15] = NGS fold-enrichment of matured AAV capsid variants, NHP brain, RNA

Sequence	Fold Enrichment relative to AAV9, Brain (Mouse) [1, 3] [fold]	Fold Enrichment relative to AAV9, DRG (NHP) [2, 4] [fold]	Fold Enrichment relative to AAV9, Brain (NHP) [2, 5] [fold]	Fold Enrichment relative to AAV9, Heart (NHP) [2, 6] [fold]	Fold Enrichment relative to AAV9, Liver DNA (NHP) [2, 7] [fold]	Fold Enrichment relative to AAV9, Liver RNA (NHP) [2, 8] [fold]	Fold Enrichment relative to AAV9, Muscle (NHP) [2, 9] [fold]	Fold Enrichment relative to AAV9, Brain (Mouse) [1, 10] [fold]	Fold Enrichment relative to AAV9, Brain (NHP) [2, 11] [fold]	Fold Enrichment relative to AAV9, DRG (NHP) ([2]; NGS fold-enrichment, NHP DRG) [fold]	Fold Enrichment relative to AAV9, Heart (NHP) ([2]; NGS fold-enrichment, NHP heart) [fold]	Fold Enrichment relative to AAV9, Liver DNA (NHP) [2, 12] [fold]	Fold Enrichment relative to AAV9, Liver RNA (NHP) [2, 13] [fold]	Fold Enrichment relative to AAV9, Muscle (NHP) [2, 14] [fold]	Fold Enrichment relative to AAV9, Brain (Mouse) ([1]; mouse brain) [fold]	Fold Enrichment relative to AAV9, Brain (NHP) [2, 15] [fold]	Fold Enrichment relative to AAV9, DRG (NHP) ([2]; NHP DRG) [fold]	Fold Enrichment relative to AAV9, Heart (NHP) ([2]; NHP heart) [fold]	Fold Enrichment relative to AAV9, Liver DNA (NHP) ([2]; NHP liver, DNA) [fold]	Fold Enrichment relative to AAV9, Liver RNA (NHP) ([2]; NHP liver, RNA) [fold]	further results
KTVNGSGSPHSKAQNHLT	70.786	0.133	59.239	0.034	0.156	0.000	0.000														
KTVNGSGSPHSKAQNLQA	50.934	0.000	66.379	0.000	0.132	0.000	0.000														
KTVNGSGSPHSKAQNQLI	71.156	0.000	80.509	0.000	0.166	0.000	0.000	71.156	80.509	0.000	0.000	0.166	0.000	0.000							
KTVNGSGSPHSKAQNQWT															69.906	56.823	0.000	0.000	0.219	0.000	Fold Enrichment relative to AAV9, Muscle (NHP) ([2]; NHP muscle): 0.299 fold
KTVNGSGSPHSKAQSLQT															69.033	55.497	0.000	0.060	0.143	0.000	Fold Enrichment relative to AAV9, Muscle (NHP) ([2]; NHP muscle): 0.000 fold
KTVNGSGSPHSKAQYQHT	54.158	0.000	72.847	0.000	0.130	0.000	0.000														
KTVNGSGSPHSKARDQQT	132.137	0.123	124.789	0.039	0.454	0.569	0.312	132.137	124.789	0.123	0.039	0.454	0.569	0.312							
KTVNGSGSPHSKSQNQLT	80.716	0.000	101.327	0.035	0.025	0.000	0.000	80.716	101.327	0.000	0.035	0.025	0.000	0.000							
KTVNGSGSPHSKSQNQQT															58.000	52.395	0.033	0.077	0.175	0.105	Fold Enrichment relative to AAV9, Muscle (NHP) ([2]; NHP muscle): 0.013 fold
